According to article PMC9283466, “In silico identification of two peptides with antibacterial activity against multidrug-resistant Staphylococcus aureus” (NPJ Biofilms and Microbiomes, 2022):
In brackets after ≈: the same amount, converted by molar mass. Bridge positions count the residues as written; N and C are the ends. Peptide text beside a SMILES is read from it.

How the values were obtained:
K. pneumoniae 518842 = assay: microbe, parasite or virus in culture; type: cell-based, Klebsiella pneumoniae; conditions: 518842
Method: (§1) To determine the antimicrobial activity of the new antimicrobial peptides, HG2 and HG4, their minimum inhibitory concentrations (MICs) were determined by broth microdilution method[51] in cation adjusted Mueller Hinton broth (MHB) following the International Organisation for Standardisation (ISO) 20776-1 standard for MIC testing using a final bacterial inoculum of 5 × 10^5 CFU/ml[52]. […] The peptides dissolved in sterile distilled water were added to bacteria culture and incubated overnight at appropriate conditions. The MICs of the peptides and comparator antibiotics were recorded after 18–24 h. The minimum bactericidal concentrations (MBCs) were also determined and were taken as the lowest concentration of the antimicrobial that prevented the growth of bacterial cells after the subculture of cells (from MIC treatment) onto antibiotic-free media.

K. pneumoniae 526903 = assay: microbe, parasite or virus in culture; type: cell-based, Klebsiella pneumoniae; conditions: 526903
Method: as §1

[1] = tested on: K. pneumoniae ATCC 700603; assay: microbe, parasite or virus in culture; type: cell-based, Klebsiella pneumoniae; conditions: ATCC 700603
Method: as §1

K. pneumoniae NCTC 13442 = assay: microbe, parasite or virus in culture; type: cell-based, Klebsiella pneumoniae; conditions: NCTC 13442
Method: as §1

MRSA USA300 cells = assay: Time-kill kinetics; type: cell-based, Staphylococcus aureus; conditions: 3x MIC; for reduction in viable cells (time-kill): within the first 10 min, logarithmic-phase MRSA USA300; for time to complete cell death: no recovery observed after 24 h
Method: The bactericidal activity of HG2, HG4 and comparator antimicrobial compounds was assessed using exponential-phase cultures[14] of MRSA USA300 grown in MHB (1 × 10^6-8 CFU/ml). […] Samples were taken at different time points, serially diluted and inoculated onto MH agar plates using the spread plate technique. After overnight incubation, the colony-forming units per millilitre of cell culture (CFU/ml) was calculated. Experiments were performed in quadruplicates.

[2] = tested on: S. aureus MRSA USA300 cells; assay: Transcriptomic analysis (RNA-Seq, DESeq2); type: cell-based, Staphylococcus aureus; conditions: MIC concentration for 60 min; p <0.05, abs(log2FC)> 2
Method: The mechanism of action and effects of HG2 and HG4 against S. aureus MRSA USA300 was investigated using transcriptomics analysis[57],[58]. […] The increased sample volume and limited treatment time of 60 min served to maintain the quality and yield of RNA. Untreated cells served as control. Cells were washed and resuspended in PBS and then RNAprotect Bacteria Reagent (QIAGEN, Hilden, Germany) was added and pelleted. This was followed by incubation in Tris-EDTA buffer containing Proteinase K and Bacterial Lysis Mix (Mutanolysin and Lysozyme) at room temperature for 10 min addition. Thereafter, RNA extraction was performed using the Qiagen RNeasy Plus Mini Kit following the manufacturer’s protocol (Qiagen, Manchester, UK). RNA was quantified using a Qubit™ fluorometer with a broad range RNA kit (Invitrogen, USA), according to the manufacturer’s instructions. All experiments were carried out in triplicates. […]
Analysis of sequencing data was carried out using the Geneious Prime® (2021.1.1) software (Biomatters Ltd, New Zealand)[59]. Firstly, all raw paired-end fastq reads passing quality check by FastQC v0.11.9 were mapped to the reference genome (Staphylococcus aureus subsp. aureus USA300_TCH1516 downloaded from the NCBI website), using Geneious RNA-Seq mapper. […]

| SMILES | MIC (K. pneumoniae 518842) [µg/mL] | MIC (K. pneumoniae 526903) [µg/mL] | MIC [1] [µg/mL] | MIC (K. pneumoniae NCTC 13442) [µg/mL] | reduction in viable cells (time-kill) (MRSA USA300 cells) [log10 CFU/ml] | time to complete cell death (MRSA USA300 cells) [min] | number of differentially expressed genes (DEGs) [2] |
| --- | --- | --- | --- | --- | --- | --- | --- |
| CC[C@H](C)[C@H](NC(=O)[C@H](CC(C)C)NC(=O)[C@H](CC(C)C)NC(=O)[C@H](CC(C)C)NC(=O)[C@H](CCCCN)NC(=O)[C@H](CCCCN)NC(=O)[C@@H](N)CCSC)C(=O)N[C@@H](CC(C)C)C(=O)N[C@@H](Cc1ccccc1)C(=O)N[C@H]1CSSC[C@@H](C(=O)N[C@@H](CCCCN)C(=O)N[C@@H](CCCCN)C(=O)N[C@@H](C)C(=O)N2CCC[C@H]2C(N)=O)NC(=O)CNC(=O)[C@H](C)NC(=O)[C@H](CC(C)C)NC(=O)[C@H](C)NC(=O)[C@H](CC(C)C)NC(=O)[C@H](C)NC(=O)[C@H](CC(C)C)NC1=O [HG2] (H-MKKLLLILFCLALALAGCKKAP-NH2; disulfide 10-18; N-terminus assumed) | 512 (≈ 217 µM) | >512 | >512 | 512 (≈ 217 µM) | > 3 | ≤ 10 | 114 |
| CC[C@H](C)[C@H](NC(=O)[C@H](CC(C)C)NC(=O)[C@H](CC(C)C)NC(=O)[C@H](C)NC(=O)CNC(=O)CNC(=O)[C@@H](NC(=O)[C@@H](NC(=O)[C@H](CC(C)C)NC(=O)[C@H](C)NC(=O)[C@H](CC(C)C)NC(=O)CNC(=O)[C@H](CC(C)C)NC(=O)[C@@H](N)C(C)C)[C@@H](C)CC)C(C)C)C(=O)N[C@@H](CCCCN)C(=O)N[C@@H](CCCCN)C(=O)N[C@@H](CCCCN)C(=O)N[C@@H](CCC(N)=O)C(=O)N[C@@H](C)C(=O)N[C@@H](CCCCN)C(=O)N[C@@H](CO)C(N)=O [HG4] (H-VLGLALIVGGALLIKKKQAKS-NH2; N-terminus and C-terminus assumed) | 512 (≈ 242 µM) | 512 (≈ 242 µM) | >512 | 512 (≈ 242 µM) | > 6 | ≤ 10 | 123 |
